We go through 28 molecules from patent publication US10471046B2, “Method for treating, preventing, or reducing the risk of skin infection” (Melinta Subsidiary Corp., priority 2014, dated 2019).

For this test, the system named is S. aureus. In words: Minimum inhibitory concentrations (MICs) for S. aureus of exemplary compounds (Table 2). It is filed as cell-based. To be noted: Staphylococcus aureus, read-out: MICs. The method in brief:
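Growth of S. aureus in media with or without compound, by broth microdilution in microtiter trays following NCCLS M7-A5 guidelines. Values are MICs in μg/mL.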

The mark [1] stands for this setting: minimum inhibitory concentrations for S. aureus.

In brackets after ≈: the same amount, converted by molar mass. Read-outs that look alike come from different tables or passages of the source.

`CC(=O)NC[C@H]1CN(c2ccc(-c3ccc(C(=O)NCc4cocn4)cc3)c(F)c2)C(=O)O1` [Compound 4205, 4′-[5-(S)-(Acetylamino-methyl)-2-oxo-oxazolidin-3-yl]-2′-fluoro-biphenyl-4-carboxylic acid (oxazol-4-ylmethyl)-amide]: the MIC under setting [1] amounted to 1 µg/mL (≈ 2.21 µM). On to `CC(=O)NC[C@H]1CN(c2ccc(-c3cc(C)c(CNCc4ccncc4)cc3C)c(F)c2)C(=O)O1` [Compound 4176, N-[3-(2-Fluoro-2′,5′-dimethyl-4′-{[(pyridin-4-ylmethyl)-amino]-methyl}-biphenyl-4-yl)-2-oxo-oxazolidin-5-(S)-ylmethyl]-acetamide], for which the MIC under setting [1] was 128 µg/mL (≈ 269 µM). Turning to `CC(=O)NC[C@H]1CN(c2ccc(-c3ccc(CNCc4c(C(F)(F)F)nn(C)c4Cl)cc3)c(F)c2)C(=O)O1` [Compound 4125, N-[3-(4′-{[(5-Chloro-1-methyl-3-trifluoromethyl-1H-pyrazol-4-ylmethyl)-amino]-methyl}-2-fluoro-biphenyl-4-yl)-2-oxo-oxazolidin-5-(S)-ylmethyl]-acetamide], the MIC under setting [1] amounted to 0.5 µg/mL (≈ 0.903 µM).

As for `CC(=O)NC[C@H]1CN(c2ccc(-c3ccc(CNCC4CCN(C(=O)OC(C)(C)C)C4)cc3)c(F)c2)C(=O)O1` (stereo partly drawn) [Compound 4317, 3-[({4′-[5-(S)-(Acetylamino-methyl)-2-oxo-oxazolidin-3-yl]-2′-fluoro-biphenyl-4-ylmethyl}-amino)-methyl]-pyrrolidine-1-carboxylic acid tert-butyl ester], under setting [1], the MIC was found to be 16 µg/mL (≈ 29.6 µM). As for `CC(=O)NC[C@H]1CN(c2ccc(-c3ccc([C@@H](NCc4ccncc4)C(N)=O)cc3)c(F)c2)C(=O)O1` [Compound 4184, 2-{4′-[5-(S)-(Acetylamino-methyl)-2-oxo-oxazolidin-3-yl]-2′-fluoro-biphenyl-4-yl}-2-(R)-[(pyridin-4-ylmethyl)-amino]-acetamide], the MIC under setting [1] worked out at 16 µg/mL (≈ 32.6 µM). As to `CC(=O)NC[C@H]1CN(c2ccc(-c3ccc(Cn4ccnn4)nc3)c(F)c2)C(=O)O1` [Compound 1036, N-{3-[3-Fluoro-4-(6-[1,2,3]triazol-1-ylmethyl-pyridin-3-yl)-phenyl]-2-oxo-oxazolidin-5-(S)-ylmethyl}-acetamide], the MIC under setting [1] worked out at 1 µg/mL (≈ 2.44 µM).

For `CSc1nnn(Cc2ccc(-c3ccc(N4C[C@H](CNC(C)=O)OC4=O)cc3F)cc2)n1` [Compound 1080, N-{3-[2-Fluoro-4′-(5-methylsulfanyl-tetrazol-2-ylmethyl)-biphenyl-4-yl]-2-oxo-oxazolidin-5-(S)-ylmethyl}-acetamide], under setting [1], the MIC was 0.25 µg/mL (≈ 0.548 µM). As to `CC(=O)NC[C@H]1CN(c2ccc(-c3ccc(Cn4cnc5c(NCC(F)(F)F)ncnc54)cc3)c(F)c2)C(=O)O1` [Compound 1104, N-(3-{2-Fluoro-4′-[6-(2,2,2-trifluoro-ethylamino)-purin-9-ylmethyl]-biphenyl-4-yl}-2-oxo-oxazolidin-5-(S)-ylmethyl)-acetamide], the MIC under setting [1] was 1 µg/mL (≈ 1.79 µM).

As to `CC(=O)NC[C@H]1CN(c2ccc(-c3ccc([C@H](O)CN(Cc4ccccc4)C(C)=O)cc3)c(F)c2)C(=O)O1` [Compound 4250, N-(2-{4′-[5-(S)-(Acetylamino-methyl)-2-oxo-oxazolidin-3-yl]-2′-fluoro-biphenyl-4-yl}-2-(S)-hydroxy-ethyl)-N-benzyl-acetamide], the MIC under setting [1] is 2 µg/mL (≈ 3.85 µM). Regarding `CC(=O)NC[C@H]1CN(c2ccc(-c3ccc(NC(=O)NCc4ccccn4)cc3)c(F)c2)C(=O)O1` [Compound 6005, N-{3-[2-Fluoro-4′-(3-pyridin-2-ylmethyl-ureido)-biphenyl-4-yl]-2-oxo-oxazolidin-5-(S)-ylmethyl}-acetamide], the MIC under setting [1] turned out to be 1 µg/mL (≈ 2.09 µM).

Regarding `COc1ccc2[nH]cc(CNCc3ccc(-c4ccc(N5C[C@H](CNC(C)=O)OC5=O)cc4F)cc3)c2c1` [Compound 4098, N-[3-(2-Fluoro-4′-{[(5-methoxy-1H-indol-3-ylmethyl)-amino]-methyl}-biphenyl-4-yl)-2-oxo-oxazolidin-5-(S)-ylmethyl]-acetamide], under setting [1], the MIC was 2 µg/mL (≈ 3.87 µM). With `CC(=O)NC[C@H]1CN(c2ccc(-c3ccc(CNCc4sc(C)nc4C)cc3)c(F)c2)C(=O)O1` [Compound 4108, N-[3-(4′-{[(2,4-Dimethyl-thiazol-5-ylmethyl)-amino]-methyl}-2-fluoro-biphenyl-4-yl)-2-oxo-oxazolidin-5-(S)-ylmethyl]-acetamide], under setting [1], the MIC is 4 µg/mL (≈ 8.29 µM). As to `O=C1O[C@@H](Cn2ccnn2)CN1c1ccc(-c2ccc(Cn3ccnc3)cc2)c(F)c1` [Compound 1084, 3-(2-Fluoro-4′-imidazol-1-ylmethyl-biphenyl-4-yl)-5-(R)-[1,2,3]triazol-1-ylmethyl-oxazolidin-2-one], the MIC under setting [1] was 0.25 µg/mL (≈ 0.597 µM). Take `CC(=O)NC[C@H]1CN(c2ccc(-c3ccc(COCc4ccccn4)cn3)c(F)c2)C(=O)O1` [Compound 4197, N-(3-{3-Fluoro-4-[5-(pyridin-2-ylmethoxymethyl)-pyridin-2-yl]-phenyl}-2-oxo-oxazolidin-5-(S)-ylmethyl)-acetamide]: the MIC under setting [1] worked out at 4 µg/mL (≈ 8.88 µM). On to `CC(=O)NC[C@H]1CN(c2ccc(-c3ccc(CNCCCc4cnn[nH]4)cc3)c(F)c2)C(=O)O1` [Compound 4258, N-[3-(2-Fluoro-4′-{[3-(3H-[1,2,3]triazol-4-yl)-propylamino]-methyl}-biphenyl-4-yl)-2-oxo-oxazolidin-5-(S)-ylmethyl]-acetamide], for which the MIC under setting [1] was 4 µg/mL (≈ 8.57 µM). Regarding `CC(=O)NC[C@H]1CN(c2ccc(-c3ccc(Cn4cnc5c(NCCCO)ncnc54)cc3)c(F)c2)C(=O)O1` [Compound 1107, N-(3-{2-Fluoro-4′-[6-(3-hydroxy-propylamino)-purin-9-ylmethyl]-biphenyl-4-yl}-2-oxo-oxazolidin-5-(S)-ylmethyl)-acetamide], the MIC under setting [1] amounted to 2 µg/mL (≈ 3.75 µM).

As to `CC(=O)NC[C@H]1CN(c2ccc(-c3ccc(CNCCN4CCNC4=O)cc3)c(F)c2)C(=O)O1` [Compound 4114, N-[3-(2-Fluoro-4′-{[2-(2-oxo-imidazolidin-1-yl)-ethylamino]-methyl}-biphenyl-4-yl)-2-oxo-oxazolidin-5-(S)-ylmethyl]-acetamide], the MIC under setting [1] is 16 µg/mL (≈ 34.1 µM). On the same count and under the same terms, the same measure for `CC(=O)NC[C@H]1CN(c2ccc(-c3ccc(Cn4cc(C)cn4)cc3)c(F)c2)C(=O)O1` [Compound 1052, N-{3-[2-Fluoro-4′-(4-methyl-pyrazol-1-ylmethyl)-biphenyl-4-yl]-2-oxo-oxazolidin-5-(S)-ylmethyl}-acetamide]: 1 µg/mL (≈ 2.37 µM); for `CCc1ccc(CNCc2ccc(-c3ccc(N4C[C@H](CNC(C)=O)OC4=O)cc3F)cc2)o1` [Compound 4161, N-[3-(4′-{[(5-Ethyl-furan-2-ylmethyl)-amino]-methyl}-2-fluoro-biphenyl-4-yl)-2-oxo-oxazolidin-5-(S)-ylmethyl]-acetamide]: 2 µg/mL (≈ 4.3 µM). For `CC(=O)NC[C@H]1CN(c2ccc(-c3ccc(CNS(=O)(=O)c4ccc(C(F)(F)F)cc4)cc3)c(F)c2)C(=O)O1` [Compound 2058, N-(3-{2-Fluoro-4′-[(4-trifluoromethyl-benzenesulfonylamino)-methyl]-biphenyl-4-yl}-2-oxo-oxazolidin-5-(S)-ylmethyl)-acetamide], the MIC under setting [1] was 32 µg/mL (≈ 56.6 µM). Same read-out and setting: the value for `CC(=O)NC[C@H]1CN(c2ccc(-c3ccc(CNCc4cncc5ccccc45)cc3)c(F)c2)C(=O)O1` [Compound 4060, N-[3-(2-Fluoro-4′-{[(isoquinolin-4-ylmethyl)-amino]-methyl}-biphenyl-4-yl)-2-oxo-oxazolidin-5-(S)-ylmethyl]-acetamide] was 2 µg/mL (≈ 4.01 µM).

With `COc1cccc(CNc2nc(Cc3ccc(-c4ccc(N5C[C@H](CNC(C)=O)OC5=O)cc4F)cc3)cs2)c1` [Compound 1021, N-(3-{2-Fluoro-4′-[2-(3-methoxy-benzylamino)-thiazol-4-ylmethyl]-biphenyl-4-yl}-2-oxo-oxazolidin-5-(S)-ylmethyl)-acetamide], the MIC worked out at 1 µg/mL (≈ 1.78 µM).

`CO/N=C(\CNCc1cnoc1)c1ccc(-c2ccc(N3C[C@H](CNC(C)=O)OC3=O)cc2F)cc1` [Compound 4254, N-[3-(2-Fluoro-4′-{2-[(isoxazol-4-ylmethyl)-amino]-1-methoxyimino-ethyl}-biphenyl-4-yl)-2-oxo-oxazolidin-5-(S)-ylmethyl]-acetamide]: under setting [1], the MIC came out at 2 µg/mL (≈ 4.04 µM). As to `CNc1nc(CNCc2ccc(-c3ccc(N4C[C@H](CNC(C)=O)OC4=O)cc3F)cc2)ns1` [Compound 4180, N-[3-(2-Fluoro-4′-{[(5-methylamino-[1,2,4]thiadiazol-3-ylmethyl)-amino]-methyl}-biphenyl-4-yl)-2-oxo-oxazolidin-5-(S)-ylmethyl]-acetamide], under setting [1], the MIC stood at 1 µg/mL (≈ 2.06 µM). As for `O=C1O[C@@H](Cn2ccnn2)CN1c1ccc(-c2ccc(CNCc3cnn[nH]3)cc2)c(F)c1` [Compound 4268, 3-(2-Fluoro-4′-{[(3H-[1,2,3]triazol-4-ylmethyl)-amino]-methyl}-biphenyl-4-yl)-5-(R)-[1,2,3]triazol-1-ylmethyl-oxazolidin-2-one], under setting [1], the MIC is 0.25 µg/mL (≈ 0.557 µM). Regarding `CC(=O)NC[C@H]1CN(c2ccc(-c3ccc([C@H](CO)NCc4c(C)nc(O)nc4O)cc3)c(F)c2)C(=O)O1` [Compound 4030, N-[3-(4′-{1-(R)-[(2,4-Dihydroxy-6-methyl-pyrimidin-5-ylmethyl)-amino]-2-hydroxy-ethyl}-2-fluoro-biphenyl-4-yl)-2-oxo-oxazolidin-5-(S)-ylmethyl]-acetamide], under setting [1], the MIC turned out to be 64 µg/mL (≈ 122 µM). For `CC(=O)NC[C@H]1CN(c2ccc(-c3ccc(CNCc4cc(C)on4)cc3)c(F)c2)C(=O)O1` [Compound 4229, N-[3-(2-Fluoro-4′-{[(5-methyl-isoxazol-3-ylmethyl)-amino]-methyl}-biphenyl-4-yl)-2-oxo-oxazolidin-5-(S)-ylmethyl]-acetamide], under setting [1], the MIC is 0.25 µg/mL (≈ 0.553 µM). As for `CC(=O)NC[C@H]1CN(c2ccc(-c3ccc(CN(C)Cc4cccnc4)cc3)c(F)c2)C(=O)O1` [Compound 4047, N-(3-{2-Fluoro-4′-[(methyl-pyridin-3-ylmethyl-amino)-methyl]-biphenyl-4-yl}-2-oxo-oxazolidin-5-(S)-ylmethyl)-acetamide], under setting [1], the MIC stood at 2 µg/mL (≈ 4.32 µM).
